Experiments:
[1] = system: BRCA2^wt/Δex11 cells (DLD1); test: Cell proliferation assay upon drug treatment, hemizygous clone; assay type: cell-based, human; conditions: 6 days
Protocol: (§1) DLD1 cells were obtained from ATCC, cultured in conventional media supplemented with 10% fetal calf serum, L-glutamine and penicillin/streptomycin.
(§2) In each well of 96-well plates, 1000 cells were plated, allowed to adhere and treated with various drugs. The drugs were obtained from Sigma (St. Louis, Mo.) except for SJG-136 which was generously provided by Ipsen Ltd. and the National Cancer Institute, NIH. The cells were washed after 6 days and lysed in 100 uL of water. Fluorescence was measured after addition of 0.5% Picogreen® (Molecular Probes, Eugene, Oreg.) using a fluorometer (Fusion®, Perkin Elmer, Shelton, Conn.). Three independent experiments were performed per drug.

[2] = system: BRCA2-deficient mouse thymocytes; conditions: Flores et al., Mol Carcinog 2002; cited from earlier work
[3] = system: BRCA2-deficient mouse small intestines; conditions: Walker et al., J Biol Chem. 2004; cited from earlier work
BRCA2^Δex11/S3291E cells = test: Cell proliferation assay upon drug treatment, SyVaL clone S3291E; assay type: cell-based, human; conditions: 6 days
Protocol: (§3) Alternately, exon 27 was targeted in the hemizygous cells using a construct whose right homology arm included intact exon 27 and individual sequence variants. Homologous integration of the construct, the presence of desired sequence variants and allelic phase of the construct were determined by allele-specific PCR and sequencing. An analogous vector design was used by Hurley et al. to introduce an ATR mutation into alleles of a human cell (Hurley, P. J. et al., Oncogene. 2007. 26, 2535-42, incorporated herein by reference).
as §2

BRCA2^Δex11/Y3308X cells = test: Cell proliferation assay upon drug treatment, SyVaL clone Y3308X; assay type: cell-based, human; conditions: 6 days
Protocol: as §3, §2

[4] = system: fibroblasts from a Fanconi D1 patient; conditions: reported by Treszezamsky, Cancer Res. 2007; cited from earlier work
BRCA2^Δex11/S3291A cells = test: Cell proliferation assay upon drug treatment, SyVaL clone S3291A; assay type: cell-based, human; conditions: 6 days
Protocol: as §3, §2

BRCA2^Δex11/Y3308Y cells = test: Cell proliferation assay upon drug treatment, SyVaL clone Y3308Y; assay type: cell-based, human; conditions: 6 days
Protocol: as §3, §2

[5] = system: BRCA2^Δex11/Δex11 cells (DLD1); test: Cell proliferation assay upon drug treatment, BRCA2 knock-out cells; assay type: cell-based, human; conditions: for FoldΔ: ratio of the IC50 of cells having the hemizygous wild-type allele to the IC50 of cells having the mutated allele: BRCA2^Δex11/Δex11 cells vs control cells, cell proliferation; for FoldΔ: ratio of the IC50 of cells having the hemizygous wild-type allele to the IC50 of cells having the mutated allele / Sensitivity of BRCA2-deficient cells compared to parental and heterozygous cells (in words): 6 days; for Sensitivity of BRCA2-deficient cells compared to parental and heterozygous cells (in words): cell proliferation following drug treatment
Protocol: as §1, §2

BRCA2^Δex11/P3280H cells = test: Cell proliferation assay upon drug treatment, SyVaL clone P3280H; assay type: cell-based, human; conditions: 6 days
Protocol: as §3, §2

BRCA2^Δex11/P3292L cells = test: Cell proliferation assay upon drug treatment, SyVaL clone P3292L; assay type: cell-based, human; conditions: 6 days
Protocol: as §3, §2

BRCA2^Δex11/Δex11 cells = test: Chromosome aberration assay; assay type: cell-based, human; conditions: BRCA2^Δex11/Δex11 vs BRCA2^wt/Δex11, MMC at equitoxic doses, 24 h
Protocol: Cells were treated with equitoxic doses of MMC (80 nM for BRCA2^wt/Δex11 and 6 nM for BRCA2^Δex11/Δex11) for 24 h. For each sample, 50 metaphases were analyzed using standard techniques by a core facility.

BRCA2-deficient cells = test: Cell-cycle analysis by flow cytometry; assay type: cell-based, human; conditions: 48 h after MMC treatment
Protocol: Cells were treated with MMC for 48 hours, processed as described previously (Vindelov, L. L., et al., Cytometry 1983. 3: 323-7, incorporated herein by reference) and analyzed by flow cytometry.

BRCA2 proficient cells = test: Rad51 focus-formation (immunofluorescence); assay type: cell-based, human; conditions: MMC 2.4 μg/ml, 24 h incubation
Protocol: Cells were treated with MMC (2.4 μg/ml) or gamma irradiation and fixed in PBS/2% paraformaldehyde after 24 h incubation. Following permeabilization in PBS/0.5% Triton X-100 and blocking for 30 min in PBS/1% bovine serum albumin/0.15% glycine, the cells were incubated with an anti-Rad51 antibody (1:200, Calbiochem, San Diego, Calif.) for 2 h. Cells were then washed and incubated with a […] (1:200, Alexa® 488, Molecular Probes, Eugene, Oreg.) for 1 h. After washing, slides were mounted and analyzed by a fluorescent microscope (Zeiss Axiover 135, Maple Grove, Minn.) and Metamorph 4.6 software (Universtal Imaging, Downington, Pa.). Pictures were acquired, keeping exposure time and software settings constant for all samples.
Baseline or induced Rad51 focus formation was considered “negative” when less than 5% or 20%, respectively, of cells had more than 5 nuclear foci and “positive” when more than 5% or 30%, respectively, of cells had more than 5 nuclear foci. Intermediate phenotypes were not observed.

[6] = system: ATR^s/s DLD1 colorectal cancer cells; test: Proliferation assay for MMC sensitivity in ATR knock-in cells; assay type: cell-based, human; conditions: 6 d after treatment
Protocol: For siRNA experiments, the cells were plated in 6-well plates at 500,000 cells/well at 24 h after siRNA transfection. Separate aliquots of each sample were counted at six different time points one to four days after transfection, using two separate aliquots for each time point. Dead cells were separately determined by trypan-blue exclusion and were negligible in number in all samples (<2%). For comparisons between parental cells and FANCD2^+/−. clones, 500,000 cells/well were plated and counted at six time points between 0 and 48 h. Two independent experiments were performed. For MMC sensitivity studies, Picogreen® (Invitrogen) proliferation assays were performed in quadruplicate as described in Gallmeier et al., 2006.

COc1cc([C@@H]2c3cc4c(cc3[C@@H](O[C@@H]3O[C@@H]5CO[C@@H](C)O[C@H]5[C@H](O)[C@H]3O)[C@H]3COC(=O)[C@H]23)OCO4)cc(OC)c1O [Etoposide, etoposide]
FoldΔ: ratio of the IC50 of cells having the hemizygous wild-type allele to the IC50 of cells having the mutated allele [1]: NoΔ
Etoposide sensitivity [2]: no increased etoposide sensitivity
Etoposide sensitivity [3]: no increased etoposide sensitivity
FoldΔ: ratio of the IC50 of cells having the hemizygous wild-type allele to the IC50 of cells having the mutated allele (BRCA2^Δex11/S3291E cells): 3-foldΔ
FoldΔ: ratio of the IC50 of cells having the hemizygous wild-type allele to the IC50 of cells having the mutated allele (BRCA2^Δex11/S3291E cells; listed as etoposide): 3 fold
FoldΔ: ratio of the IC50 of cells having the hemizygous wild-type allele to the IC50 of cells having the mutated allele (BRCA2^Δex11/Y3308X cells): 10-foldΔ
FoldΔ: ratio of the IC50 of cells having the hemizygous wild-type allele to the IC50 of cells having the mutated allele (BRCA2^Δex11/Y3308X cells; listed as etoposide): 10 fold
Difference in sensitivity of BRCA2 deficient cells to the drug [4]: 2.75 fold
FoldΔ: ratio of the IC50 of cells having the hemizygous wild-type allele to the IC50 of cells having the mutated allele (BRCA2^Δex11/S3291A cells): NoΔ
FoldΔ: ratio of the IC50 of cells having the hemizygous wild-type allele to the IC50 of cells having the mutated allele (BRCA2^Δex11/Y3308Y cells): NoΔ
FoldΔ: ratio of the IC50 of cells having the hemizygous wild-type allele to the IC50 of cells having the mutated allele (BRCA2^Δex11/Y3308Y cells; listed as etoposide): did not differ from control cells
Etoposide hypersensitivity in combination with other anticancer agents ([5]; BRCA2-deficient cells): additive to, but not synergistic with
FoldΔ: ratio of the IC50 of cells having the hemizygous wild-type allele to the IC50 of cells having the mutated allele [5]: 10-foldΔ
FoldΔ: ratio of the IC50 of cells having the hemizygous wild-type allele to the IC50 of cells having the mutated allele ([5]; listed as etoposide): 10 fold
FoldΔ: ratio of the IC50 of cells having the hemizygous wild-type allele to the IC50 of cells having the mutated allele (BRCA2^Δex11/P3280H cells): NoΔ
FoldΔ: ratio of the IC50 of cells having the hemizygous wild-type allele to the IC50 of cells having the mutated allele (BRCA2^Δex11/P3280H cells; listed as etoposide): not significantly more sensitive
FoldΔ: ratio of the IC50 of cells having the hemizygous wild-type allele to the IC50 of cells having the mutated allele (BRCA2^Δex11/P3292L cells): NoΔ
FoldΔ: ratio of the IC50 of cells having the hemizygous wild-type allele to the IC50 of cells having the mutated allele (BRCA2^Δex11/P3292L cells; listed as etoposide): not significantly more sensitive

CO[C@@]12[C@H](COC(N)=O)C3=C(C(=O)C(C)=C(N)C3=O)N1C[C@@H]1N[C@@H]12 [MMC, mitomycin C]
FoldΔ: ratio of the IC50 of cells having the hemizygous wild-type allele to the IC50 of cells having the mutated allele [1]: NoΔ
FoldΔ: ratio of the IC50 of cells having the hemizygous wild-type allele to the IC50 of cells having the mutated allele ([1]; listed as mitomycin): absence of mitomycin hypersensitivity
Rates of chromosomal aberrations, including breaks and radials (BRCA2^Δex11/Δex11 cells): much higher rates of chromosomal aberrations
Cell cycle effect (genotype-dependent toxicity) (BRCA2-deficient cells): profound G2/M arrest
Cells with induced Rad51 foci (more than 5 foci) (BRCA2 proficient cells): 60-80%
FoldΔ: ratio of the IC50 of cells having the hemizygous wild-type allele to the IC50 of cells having the mutated allele (BRCA2^Δex11/S3291A cells): NoΔ
MMC sensitivity compared to control cells [6]: strikingly more sensitive
FoldΔ: ratio of the IC50 of cells having the hemizygous wild-type allele to the IC50 of cells having the mutated allele (BRCA2^Δex11/Y3308Y cells): did not differ from control cells and NoΔ
FoldΔ: ratio of the IC50 of cells having the hemizygous wild-type allele to the IC50 of cells having the mutated allele [5]: 20-foldΔ
Sensitivity of BRCA2-deficient cells compared to parental and heterozygous cells (in words) [5]: greatly increased sensitivity
FoldΔ: ratio of the IC50 of cells having the hemizygous wild-type allele to the IC50 of cells having the mutated allele (BRCA2^Δex11/P3280H cells): not significantly more sensitive and NoΔ
FoldΔ: ratio of the IC50 of cells having the hemizygous wild-type allele to the IC50 of cells having the mutated allele (BRCA2^Δex11/P3292L cells): not significantly more sensitive and NoΔ

Cc1nc2c(O)cccc2c(=O)[nH]1 [NU1025]
FoldΔ: ratio of the IC50 of cells having the hemizygous wild-type allele to the IC50 of cells having the mutated allele [5]: 20 fold

C=C1C[C@H]2C=Nc3cc(OCCCOc4cc5c(cc4OC)C(=O)N4CC(=C)C[C@H]4C=N5)c(OC)cc3C(=O)N2C1 [SJG]
Sensitivity of BRCA2-deficient cells compared to parental and heterozygous cells (in words) [5]: greatly increased sensitivity

O=c1cc(-c2ccc(O)cc2)oc2cc(O)cc(O)c12 [apigenin]
Sensitivity of BRCA2-deficient cells compared to parental and heterozygous cells (in words) [5]: No differences in sensitivities

CC[C@@]1(O)C(=O)OCc2c1cc1n(c2=O)Cc2cc3ccccc3nc2-1 [camptothecin]
FoldΔ: ratio of the IC50 of cells having the hemizygous wild-type allele to the IC50 of cells having the mutated allele [5]: 6 fold

N.N.O=C([O-])C1(C(=O)[O-])CCC1.[Pt+2] [carboplatin]
Sensitivity of BRCA2-deficient cells compared to parental and heterozygous cells (in words) [5]: greatly increased sensitivity

N.N.[Cl][Pt][Cl] [cisplatin]
Sensitivity of BRCA2-deficient cells compared to parental and heterozygous cells (in words) [5]: greatly increased sensitivity

COc1cc(/C=C/C(=O)CC(=O)/C=C/c2ccc(O)c(OC)c2)ccc1O [curcumin]
Sensitivity of BRCA2-deficient cells compared to parental and heterozygous cells (in words) [5]: No differences in sensitivities

COc1cccc2c1C(=O)c1c(O)c3c(c(O)c1C2=O)C[C@@](O)(C(=O)CO)C[C@@H]3O[C@H]1C[C@H](N)[C@H](O)[C@H](C)O1 [doxorubicin]
FoldΔ: ratio of the IC50 of cells having the hemizygous wild-type allele to the IC50 of cells having the mutated allele [5]: 10 fold

Nc1ccn([C@@H]2O[C@H](CO)[C@@H](O)C2(F)F)c(=O)n1 [gemcitabine]
Sensitivity of BRCA2-deficient cells compared to parental and heterozygous cells (in words) [5]: No differences in sensitivities

COc1ccc([C@@H]2CC(=O)c3c(O)cc(O[C@@H]4O[C@H](CO[C@@H]5O[C@@H](C)[C@H](O)[C@@H](O)[C@H]5O)[C@@H](O)[C@H](O)[C@H]4O)cc3O2)cc1O [hesperidin]
Sensitivity of BRCA2-deficient cells compared to parental and heterozygous cells (in words) [5]: No differences in sensitivities

N[C@@H](Cc1ccc(N(CCCl)CCCl)cc1)C(=O)O [melphalan]
Sensitivity of BRCA2-deficient cells compared to parental and heterozygous cells (in words) [5]: greatly increased sensitivity

C#C[C@]1(O)CC[C@H]2[C@@H]3CCC4=CC(=O)CC[C@@H]4[C@H]3CC[C@@]21C [norethindrone]
Sensitivity of BRCA2-deficient cells compared to parental and heterozygous cells (in words) [5]: No differences in sensitivities

O=C1[O][Pt]2([NH][C@@H]3CCCC[C@H]3[NH]2)[O]C1=O [oxaliplatin]
Sensitivity of BRCA2-deficient cells compared to parental and heterozygous cells (in words) [5]: greatly increased sensitivity

CC[C@]1(O)C[C@@H]2CN(CCc3c([nH]c4ccccc34)[C@@](C(=O)OC)(c3cc4c(cc3OC)N(C)[C@H]3[C@@](O)(C(=O)OC)[C@H](OC(C)=O)[C@]5(CC)C=CCN6CC[C@]43[C@@H]65)C2)C1 [vinblastine]
Sensitivity of BRCA2-deficient cells compared to parental and heterozygous cells (in words) [5]: No differences in sensitivities
